Species: Rattus norvegicus
Experiment: Open TG-GATES - Regimen: Daily Repeat
Type: toxicity, organism-based, Sprague-Dawley
Parameters: regimen Daily Repeat, gender Male, age 6 weeks
Conditions: in vivo, po, route gavage; for APTT / Bas / Eos / Fbg / Hb / Ht / Lym / MCH / MCHC / MCV / Mono / Neu / PT / Plat / RBC / Ret / WBC: tissue Blood; for KIDNEY_L / KIDNEY_R / KIDNEY_TOTAL: tissue Kidney; for LIVER: tissue Liver; for A/G / ALP / ALT / AST / BUN / CRE / Ca / Cl / DBIL / GLC / IP / K / LDH / Na / PL / RALB / TBIL / TC / TG / TP / gamma-GTP: tissue Plasma
[1] = 0 mg/kg, 72 h, dose level Control, time 3 day
[2] = 0 mg/kg, […], dose level Control, time 7 day
[3] = 0 mg/kg, […], dose level Control, time 14 day
[4] = 0 mg/kg, […], dose level Control, time 28 day
[5] = 5 mg/kg, 72 h, dose level Low, time 3 day
[6] = 5 mg/kg, […], dose level Low, time 7 day
[7] = 5 mg/kg, […], dose level Low, time 14 day
[8] = 5 mg/kg, […], dose level Low, time 28 day

## CC1=C(CC(=O)O)c2cc(F)ccc2/C1=C\c1ccc([S+](C)[O-])cc1 (centres undefined)
[1]
  TERMINAL_BW: 233.7 g
  APTT: 16 s
  Bas: 0%
  Eos: 1%
  Fbg: 298.2 mg/dL
  Hb: 14.3 g/dL
  Ht: 42.9%
  Lym: 79%
  MCH: 21.6 pg
  MCHC: 33.3%
  MCV: 64.9 fL
  Mono: 2.2%
  Neu: 17%
  PT: 13.8 s
  Plat: 126.4 x10_4/uL
  RBC: 662.2 x10_4/ul
  Ret: 7.1%
  WBC: 84.9 x10_2/uL
  KIDNEY_L: 1 g
  KIDNEY_R: 1 g
  KIDNEY_TOTAL: 1.9 g
  LIVER: 11.1 g
  A/G: 0.9
  ALP: 1760.4 IU/L
  ALT: 44 IU/L
  AST: 69.4 IU/L
  BUN: 15 mg/dL
  CRE: 0.2 mg/dL
  Ca: 11.2 mg/dL
  Cl: 105.8 meq/L
  DBIL: 0.014 mg/dL
  GLC: 180.6 mg/dL
  IP: 7.5 mg/dL
  K: 4.2 meq/L
  LDH: 73.8 IU/L
  Na: 142 meq/L
  PL: 160.8 mg/dL
  RALB: 2.7 g/dL
  TBIL: 0.02 mg/dL
  TC: 80.4 mg/dL
  TG: 111.6 mg/dL
  TP: 5.6 g/dL
  gamma-GTP: 1 IU/L
[2]
  TERMINAL_BW: 270.8 g
  APTT: 16.4 s
  Bas: 0.2%
  Eos: 1%
  Fbg: 306.6 mg/dL
  Hb: 14.4 g/dL
  Ht: 42.3%
  Lym: 81.2%
  MCH: 21.3 pg
  MCHC: 34.1%
  MCV: 62.5 fL
  Mono: 2.6%
  Neu: 14.4%
  PT: 13.6 s
  Plat: 131.7 x10_4/uL
  RBC: 678.6 x10_4/ul
  Ret: 5.9%
  WBC: 91.7 x10_2/uL
  KIDNEY_L: 1.1 g
  KIDNEY_R: 1.1 g
  KIDNEY_TOTAL: 2.1 g
  LIVER: 12.7 g
  A/G: 0.9
  ALP: 1662.6 IU/L
  ALT: 45.2 IU/L
  AST: 69.8 IU/L
  BUN: 16.8 mg/dL
  CRE: 0.2 mg/dL
  Ca: 10.9 mg/dL
  Cl: 104.4 meq/L
  DBIL: 0.012 mg/dL
  GLC: 183 mg/dL
  IP: 7.2 mg/dL
  K: 4.2 meq/L
  LDH: 108.4 IU/L
  Na: 140.4 meq/L
  PL: 177 mg/dL
  RALB: 2.7 g/dL
  TBIL: 0.018 mg/dL
  TC: 94.2 mg/dL
  TG: 120.4 mg/dL
  TP: 5.7 g/dL
  gamma-GTP: 0.8 IU/L
[3]
  TERMINAL_BW: 336.8 g
  APTT: 17.6 s
  Bas: 0.2%
  Eos: 1%
  Fbg: 299.8 mg/dL
  Hb: 15.1 g/dL
  Ht: 44.6%
  Lym: 76.8%
  MCH: 20.9 pg
  MCHC: 33.9%
  MCV: 61.5 fL
  Mono: 2.4%
  Neu: 19.6%
  PT: 14.2 s
  Plat: 124.3 x10_4/uL
  RBC: 725.2 x10_4/ul
  Ret: 4.3%
  WBC: 92.8 x10_2/uL
  KIDNEY_L: 1.3 g
  KIDNEY_R: 1.3 g
  KIDNEY_TOTAL: 2.5 g
  LIVER: 14.8 g
  A/G: 0.9
  ALP: 1218 IU/L
  ALT: 38.6 IU/L
  AST: 66.8 IU/L
  BUN: 17.8 mg/dL
  CRE: 0.2 mg/dL
  Ca: 11.1 mg/dL
  Cl: 105.4 meq/L
  DBIL: 0.012 mg/dL
  GLC: 180 mg/dL
  IP: 6 mg/dL
  K: 3.8 meq/L
  LDH: 65.6 IU/L
  Na: 143.6 meq/L
  PL: 163.4 mg/dL
  RALB: 2.8 g/dL
  TBIL: 0.044 mg/dL
  TC: 73.2 mg/dL
  TG: 175.4 mg/dL
  TP: 5.9 g/dL
  gamma-GTP: 1 IU/L
[4]
  TERMINAL_BW: 383.5 g
  APTT: 17.9 s
  Bas: 0.2%
  Eos: 1.8%
  Fbg: 282.6 mg/dL
  Hb: 15.2 g/dL
  Ht: 46.1%
  Lym: 79.2%
  MCH: 18.9 pg
  MCHC: 32.9%
  MCV: 57.4 fL
  Mono: 1.8%
  Neu: 16.2%
  PT: 13.2 s
  Plat: 109 x10_4/uL
  RBC: 802.4 x10_4/ul
  Ret: 2.4%
  WBC: 108.9 x10_2/uL
  KIDNEY_L: 1.3 g
  KIDNEY_R: 1.3 g
  KIDNEY_TOTAL: 2.6 g
  LIVER: 14.9 g
  A/G: 0.8
  ALP: 1152 IU/L
  ALT: 35.8 IU/L
  AST: 63.6 IU/L
  BUN: 16.8 mg/dL
  CRE: 0.3 mg/dL
  Ca: 10.3 mg/dL
  Cl: 105 meq/L
  DBIL: 0.012 mg/dL
  GLC: 192.2 mg/dL
  IP: 6.5 mg/dL
  K: 3.6 meq/L
  LDH: 82.8 IU/L
  Na: 142 meq/L
  PL: 128.8 mg/dL
  RALB: 2.7 g/dL
  TBIL: 0.074 mg/dL
  TC: 57.4 mg/dL
  TG: 125.6 mg/dL
  TP: 6 g/dL
  gamma-GTP: 1 IU/L
[5]
  TERMINAL_BW: 233.7 g
  APTT: 15.8 s
  Bas: 0%
  Eos: 1%
  Fbg: 306.2 mg/dL
  Hb: 14.4 g/dL
  Ht: 42.7%
  Lym: 72.4%
  MCH: 21.2 pg
  MCHC: 33.8%
  MCV: 62.7 fL
  Mono: 2.4%
  Neu: 23.8%
  PT: 13.7 s
  Plat: 128.2 x10_4/uL
  RBC: 681.2 x10_4/ul
  Ret: 6.8%
  WBC: 91.3 x10_2/uL
  KIDNEY_L: 1 g
  KIDNEY_R: 1 g
  KIDNEY_TOTAL: 1.9 g
  LIVER: 11.2 g
  A/G: 0.9
  ALP: 1483.6 IU/L
  ALT: 40.6 IU/L
  AST: 67.8 IU/L
  BUN: 15.2 mg/dL
  CRE: 0.2 mg/dL
  Ca: 11.1 mg/dL
  Cl: 106.2 meq/L
  DBIL: 0.01 mg/dL
  GLC: 177 mg/dL
  IP: 7.3 mg/dL
  K: 4.2 meq/L
  LDH: 76 IU/L
  Na: 142 meq/L
  PL: 168.2 mg/dL
  RALB: 2.7 g/dL
  TBIL: 0.018 mg/dL
  TC: 88 mg/dL
  TG: 121.8 mg/dL
  TP: 5.6 g/dL
  gamma-GTP: 1.2 IU/L
[6]
  TERMINAL_BW: 272.8 g
  APTT: 18.1 s
  Bas: 0%
  Eos: 1%
  Fbg: 300.2 mg/dL
  Hb: 14.2 g/dL
  Ht: 41.6%
  Lym: 79%
  MCH: 21.3 pg
  MCHC: 34.2%
  MCV: 62.3 fL
  Mono: 2%
  Neu: 17.4%
  PT: 13.7 s
  Plat: 134 x10_4/uL
  RBC: 667.8 x10_4/ul
  Ret: 5.8%
  WBC: 93.6 x10_2/uL
  KIDNEY_L: 1.2 g
  KIDNEY_R: 1.2 g
  KIDNEY_TOTAL: 2.3 g
  LIVER: 13.1 g
  A/G: 0.9
  ALP: 1462.4 IU/L
  ALT: 37.6 IU/L
  AST: 67.4 IU/L
  BUN: 17.6 mg/dL
  CRE: 0.2 mg/dL
  Ca: 11 mg/dL
  Cl: 104.2 meq/L
  DBIL: 0.012 mg/dL
  GLC: 183.6 mg/dL
  IP: 6.4 mg/dL
  K: 4.2 meq/L
  LDH: 98 IU/L
  Na: 140.6 meq/L
  PL: 156.6 mg/dL
  RALB: 2.7 g/dL
  TBIL: 0.022 mg/dL
  TC: 78.8 mg/dL
  TG: 122.4 mg/dL
  TP: 5.8 g/dL
  gamma-GTP: 1 IU/L
[7]
  TERMINAL_BW: 329.4 g
  APTT: 17.3 s
  Bas: 0%
  Eos: 1%
  Fbg: 321 mg/dL
  Hb: 15.5 g/dL
  Ht: 45.7%
  Lym: 77.2%
  MCH: 21.1 pg
  MCHC: 34%
  MCV: 62.1 fL
  Mono: 2.2%
  Neu: 18.6%
  PT: 13.8 s
  Plat: 123.9 x10_4/uL
  RBC: 737.2 x10_4/ul
  Ret: 4%
  WBC: 93.7 x10_2/uL
  KIDNEY_L: 1.3 g
  KIDNEY_R: 1.3 g
  KIDNEY_TOTAL: 2.5 g
  LIVER: 14.3 g
  A/G: 0.9
  ALP: 1448 IU/L
  ALT: 40 IU/L
  AST: 65.6 IU/L
  BUN: 16.4 mg/dL
  CRE: 0.2 mg/dL
  Ca: 11 mg/dL
  Cl: 105.4 meq/L
  DBIL: 0.01 mg/dL
  GLC: 177.2 mg/dL
  IP: 6.2 mg/dL
  K: 3.6 meq/L
  LDH: 62.4 IU/L
  Na: 143 meq/L
  PL: 163 mg/dL
  RALB: 2.8 g/dL
  TBIL: 0.044 mg/dL
  TC: 74.6 mg/dL
  TG: 153.8 mg/dL
  TP: 6 g/dL
  gamma-GTP: 1 IU/L
[8]
  TERMINAL_BW: 403.3 g
  APTT: 17.8 s
  Bas: 0%
  Eos: 1.4%
  Fbg: 292 mg/dL
  Hb: 15.4 g/dL
  Ht: 46.5%
  Lym: 79%
  MCH: 18.6 pg
  MCHC: 33.1%
  MCV: 56.4 fL
  Mono: 2%
  Neu: 17.4%
  PT: 12.8 s
  Plat: 112.3 x10_4/uL
  RBC: 826.8 x10_4/ul
  Ret: 2.6%
  WBC: 97.8 x10_2/uL
  KIDNEY_L: 1.4 g
  KIDNEY_R: 1.4 g
  KIDNEY_TOTAL: 2.8 g
  LIVER: 16.6 g
  A/G: 0.8
  ALP: 1234.6 IU/L
  ALT: 34.4 IU/L
  AST: 63.8 IU/L
  BUN: 17.4 mg/dL
  CRE: 0.3 mg/dL
  Ca: 10.6 mg/dL
  Cl: 103.8 meq/L
  DBIL: 0.014 mg/dL
  GLC: 187 mg/dL
  IP: 6.4 mg/dL
  K: 3.6 meq/L
  LDH: 72.8 IU/L
  Na: 142.8 meq/L
  PL: 164.8 mg/dL
  RALB: 2.8 g/dL
  TBIL: 0.08 mg/dL
  TC: 77.8 mg/dL
  TG: 195 mg/dL
  TP: 6.4 g/dL
  gamma-GTP: 1 IU/L
